Assay results reported in the NIST ThermoML archive (doi:10.1021/je060474z).

Assay: cn = amount concentration of the nth substance listed, in mol/dm3
Conditions: 101.3 kPa, Liquid, Taylor dispersion method

OC[C@H]1O[C@@H]2O[C@H]3[C@H](O)[C@@H](O)[C@@H](O[C@H]4[C@H](O)[C@@H](O)[C@@H](O[C@H]5[C@H](O)[C@@H](O)[C@@H](O[C@H]6[C@H](O)[C@@H](O)[C@@H](O[C@H]7[C@H](O)[C@@H](O)[C@@H](O[C@H]1[C@H](O)[C@H]2O)O[C@@H]7CO)O[C@@H]6CO)O[C@@H]5CO)O[C@@H]4CO)O[C@@H]3CO [α-cyclodextrin] + O
binary diffusion coefficient [m2/s]
Conditions	c1 = 0.002	c1 = 0.004	c1 = 0.006	c1 = 0.008	c1 = 0.01
298.15 K	3.52e-10	3.5e-10	3.49e-10	3.47e-10	3.46e-10
303.15 K	4.07e-10	4.04e-10	4.03e-10	4.01e-10	3.98e-10
308.15 K	4.38e-10	4.36e-10	4.35e-10	4.34e-10	4.31e-10
312.15 K	5.02e-10	4.98e-10	4.88e-10	4.78e-10	4.72e-10
